The text below walks through data of the SangsterLogP compilation.

Broadly, the logD is lipophilicity at a set pH, counting ionised and neutral species. Low values mean lower lipophilicity, high ones higher lipophilicity.

The first series in a line: method code SF-RC, from Fauchere, J.; Pliska, V. (1983). Hydrophobic parameters of aminoacid side chains from the partitioning of N-acetylaminoacid amides. Eur J Med Chem, 18(4)369-375. The following applies: pH 7.1.
Molecule `CC(=O)N[C@@H](CC(C)C)C(N)=O` came in with a logD of -0.13.
The same measure, in the same setting: to `CC(=O)NC(CC12CC3CC(CC(C3)C1)C2)C(N)=O` (configuration not stated) belongs 1.9; to `CC(=O)NC(C(N)=O)C(C)O` (configuration not stated), -1.57.
Still for that read-out and setting: to `CC(=O)N1CCC[C@H]1C(N)=O` belongs -1.34; to `CC(=O)N[C@@H](CO)C(N)=O`, -1.87; to `CC(=O)N[C@@H](Cc1cnc[nH]1)C(N)=O`, -1.7.
Molecule `CC(=O)N[C@@H](CC(N)=O)C(N)=O` yielded a logD of -2.41.
As for `CC(=O)NC(CCC(N)=O)C(N)=O` (configuration not stated), the logD was -2.05.
Turning to `CC(=O)N[C@H](C(N)=O)C(C)C`, the logD is -0.61.
The molecule `CCC(C)C(NC(C)=O)C(N)=O` (configuration not stated) came in with a logD of -0.03.

Another series is described as follows: method code SF-CR+AS, from Fauchere, J.; Pliska, V. (1983). Hydrophobic parameters of aminoacid side chains from the partitioning of N-acetylaminoacid amides. Eur J Med Chem, 18(4)369-375. The following applies: pH 7.1.
On to `CC(=O)N[C@H](CS)C(N)=O`, for which the logD is -0.29.
Still for that read-out and setting: the value for `CC(=O)NC(=O)C(N)CSSCC(N)C(=O)NC(C)=O` (configuration not stated) was -1.7.
